Laboratory results published in US20110172244A1 (IRM LLC, priority 2008, published 2011).

target: T1, human GPR119 (Homo sapiens, UniProt Q8TDV5); experiment: Cyclic AMP assay in stable cell line (Flp-In-CHO-hGPR119, HTRF); type: cell-based; conditions: Flp-In-CHO-hGPR119 cells, cAMP HTRF, 1 mM IBMX, 30 minutes at 37° C.; read-out: CHO-GPR119-HTRF (3158) EC50
T1 construct: expressed in transfected cells
T1 sequence (Q8TDV5 1-335): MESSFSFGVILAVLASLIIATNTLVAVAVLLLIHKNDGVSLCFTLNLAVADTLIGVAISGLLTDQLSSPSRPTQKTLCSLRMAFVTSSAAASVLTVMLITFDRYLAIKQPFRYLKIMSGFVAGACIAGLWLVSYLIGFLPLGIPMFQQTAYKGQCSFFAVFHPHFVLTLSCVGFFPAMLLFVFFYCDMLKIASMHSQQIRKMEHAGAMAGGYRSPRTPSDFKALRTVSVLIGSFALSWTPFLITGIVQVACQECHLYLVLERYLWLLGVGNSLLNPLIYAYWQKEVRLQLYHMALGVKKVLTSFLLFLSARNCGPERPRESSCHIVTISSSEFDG
Experimental: Generation of Stable Cell Line
Flp-In-CHO cells (Invitrogen, Cat. #R758-07) are maintained in Ham's F12 medium supplemented with 10% fetal bovine serum, 1% antibiotic mixture and 2 mM L-glutamine. The cells are transfected with a DNA mixture containing human GPR119 in pcDNA5/FRT vector and the pOG44 vector (1:9) using Fugene6 (Roche), according to the manufacturer's instruction. After 48 hours, the medium is changed to medium supplemented with 400 μg/ml hygromycin B to initiate the selection of stably transfected cells.
Cyclic AMP Assay in Stable Cell Line
To test the activity of compounds of the invention, Flp-In-CHO-hGPR119 cells are harvested and resuspended in DMEM plus 3% lipid-depleted fetal bovine serum. Forth μl of cells are plated in 384 well plates at a density of 15,000 cells/well. IBMX (3-isobutyl-1-methyl-xanthine) is added to the cells to a final concentration of 1 mM, followed by the addition of 500 nl of the compound to be tested. The cells are incubated at 37° C. for 30 minutes. Equal volume (20 μl) of the HTRF reagents, anti-cAMP-Cryptate and cAMP-XL665, are added to the cells. The plates are incubated at room temperature for 1 hour and read on a HTRF reader according to the manufacturer's instruction.

EC50	Compound
22 nM	O=C(c1[nH]c2c(F)cccc2c1S(=O)(=O)c1ccc(Cl)cc1)N1CCC(Cc2ccccc2)CC1 [Example B1, (4-benzylpiperidin-1-yl)(3-(4-chlorophenylsulfonyl)-7-fluoro-1H-indol-2-yl)methanone]
210 nM	O=C(c1[nH]c2ccccc2c1S(=O)(=O)Cc1ccccc1)N1CCC(Cc2ccccc2)CC1 [Example B2, (4-benzylpiperidin-1-yl)(3-benzylsulfonyl-1H-indol-2-yl)methanone]
755 nM	O=C(c1[nH]c2ccccc2c1SC1CCCCC1)N1CCC(Cc2ccccc2)CC1 [Example B3, (4-benzylpiperidin-1-yl)(3-(cyclohexylthio)-1H-indol-2-yl)methanone]
149 nM	O=C(c1[nH]c2ccccc2c1S(=O)(=O)C1CCCCC1)N1CCC(Cc2ccccc2)CC1 [Example B4]
169 nM	Cn1c(C(=O)N2CCC(Cc3ccccc3)CC2)c(S(=O)(=O)c2ccc(Cl)cc2)c2ccccc21 [Example B5, (4-Benzylpiperidin-1-yl)(3-(4-chlorophenylsulfonyl)-1-methyl-1H-indol-2-yl)methanone]
42 nM	O=C(c1[nH]c2ccccc2c1S(=O)(=O)CCc1ccccc1)N1CCC(Cc2ccccc2)CC1 [Example B11, (4-benzylpiperidin-1-yl)(3-(phenethylsulfonyl)-1H-indol-2-yl)methanone]
454 nM	O=C(c1[nH]c2ccccc2c1Sc1ccccc1)N1CCC(Cc2ccccc2)CC1 [Example C1, (4-Benzylpiperidin-1-yl)(3-(phenylthio)-1H-indol-2-yl)methanone]
180 nM	O=C(c1[nH]c2ccccc2c1Sc1ccc(Cl)cc1)N1CCC(Cc2ccccc2)CC1 [Example C2, (4-benzylpiperidin-1-yl)(3-(4-chlorophenylthio)-1H-indol-2-yl)methanone]

Second part, the compound before the results:

Compound	EC50
O=C(c1[nH]c2ccc(F)cc2c1S(=O)(=O)c1ccc(Cl)cc1)N1CCC(Cc2ccccc2)CC1 [Example A1, (4-benzylpiperidin-1-yl)(3-(4-chlorophenylsulfonyl)-5-fluoro-1H-indol-2-yl)methanone]	12 nM
O=C(c1[nH]c2ccccc2c1S(=O)(=O)c1ccc(Cl)cc1)N1CCN(Cc2c(F)cccc2Cl)CC1 [Example A2, (4-(2-chloro-6-fluorobenzyl)piperazin-1-yl)(3-(4-chlorophenylsulfonyl)-1H-indol-2-yl)methanone]	7 nM
Cc1ccc(OC2CCN(C(=O)c3[nH]c4ccccc4c3S(=O)(=O)c3ccc(Cl)cc3)CC2)cc1 [Example A3, (3-(4-chlorophenylsulfonyl)-1H-indol-2-yl)(4-(p-tolyloxy)piperidin-1-yl)methanone]	9 nM
O=C(c1[nH]c2ccccc2c1S(=O)(=O)c1ccc(Cl)cc1)N1CCC(Oc2ccc(C(F)(F)F)cc2)CC1 [Example A4, (3-(4-chlorophenylsulfonyl)-1H-indol-2-yl)(4-(4-(trifluoromethyl)phenoxy)piperidin-1-yl)methanone]	10 nM
O=C(c1[nH]c2ccccc2c1S(=O)(=O)c1ccc(Cl)cc1)N1CCN(Cc2ccc(Cl)cc2)CC1 [Example A5, (4-(4-chlorobenzyl)piperazin-1-yl)(3-(4-chlorophenylsulfonyl)-1H-indol-2-yl)methanone]	17 nM
Cc1ccc(SC2CCN(C(=O)c3[nH]c4ccccc4c3S(=O)(=O)c3ccc(Cl)cc3)CC2)cc1 [Example A6, (3-(4-chlorophenylsulfonyl)-1H-indol-2-yl)(4-(p-tolylthio)piperidin-1-yl)methanone]	18 nM
O=C(c1[nH]c2ccccc2c1S(=O)(=O)c1ccc(Cl)cc1)N1CCC(CCc2ccccc2)CC1 [Example A7, (3-(4-chlorophenylsulfonyl)-1H-indol-2-yl)(4-phenethylpiperidin-1-yl)methanone]	18 nM
O=C(c1[nH]c2ccccc2c1S(=O)(=O)c1ccc(Cl)cc1)N1CCN(CC2CCCCC2)CC1 [Example A11, (3-(4-chlorophenylsulfonyl)-1H-indol-2-yl)(4-(cyclohexylmethyl)piperazin-1-yl)methanone]	32 nM
O=C(c1[nH]c2ccccc2c1S(=O)(=O)c1ccc(Cl)cc1)N1CCN(Cc2ccc3c(c2)OCO3)CC1 [Example A12, (4-(benzo[d][1,3]dioxol-5-ylmethyl)piperazin-1-yl)(3-(4-chlorophenylsulfonyl)-1H-indol-2-yl)methanone]	40 nM
CN(Cc1ccccc1)C1CCN(C(=O)c2[nH]c3ccccc3c2S(=O)(=O)c2ccc(Cl)cc2)CC1 [Example A19, (4-(benzyl(methyl)amino)piperidin-1-yl)(3-(4-chlorophenylsulfonyl)-1H-indol-2-yl)methanone]	533 nM
CN(CCOc1ccccc1)C(=O)c1[nH]c2ccccc2c1S(=O)(=O)c1ccc(Cl)cc1 [Example A20, 3-(4-chlorophenylsulfonyl)-N-methyl-N-(2-phenoxyethyl)-1H-indole-2-carboxamide]	192 nM
O=C(c1[nH]c2ccccc2c1S(=O)(=O)c1ccc(Cl)cc1)N1CCN(Cc2ccncc2)CC1 [Example A22, (3-(4-chlorophenylsulfonyl)-1H-indol-2-yl)(4-(pyridin-4-ylmethyl)piperazin-1-yl)methanone]	435 nM
O=C(NCCCCc1ccccc1)c1[nH]c2ccccc2c1S(=O)(=O)c1ccc(Cl)cc1 [Example A23, 3-(4-chlorophenylsulfonyl)-N-(4-phenylbutyl)-1H-indole-2-carboxamide]	396 nM
O=C(c1[nH]c2ccccc2c1S(=O)(=O)c1ccc(Cl)cc1)N1CCCCC1 [Example A24, (3-(4-chlorophenylsulfonyl)-1H-indol-2-yl)(piperidin-1-yl)methanone]	574 nM
O=C(c1oc2ccccc2c1S(=O)(=O)c1ccc(Cl)cc1)N1CCC(Oc2ccc(C(F)(F)F)cc2)CC1 [Example A29, (3-(4-Chlorophenylsulfonyl)benzofuran-2-yl)(4-(4-(trifluoromethyl)phenoxy)piperidin-1-yl)methanone]	54 nM
O=C(c1oc2ccccc2c1S(=O)(=O)c1ccc(Cl)cc1)N1CCN(Cc2ccccc2)CC1 [Example A30, (4-benzylpiperazin-1-yl)(3-(4-chlorophenylsulfonyl)benzofuran-2-yl)methanone]	187 nM
